Data from US4668703A, “γ-allenyl-γ-aminobutyric acids” (Syntex (U.S.A.) Inc., priority 1985, dated 1987).
Counter-ions that a name gives are not always drawn. Like-named read-outs stand apart in the source and are kept apart here.

How the values were obtained:
[1] = tested on: brain level of γ-aminobutyric acid; details: in animals; cited from earlier work
[2] = tested on: γ-aminobutyric acid transaminase; details: cited from earlier work
[3] = Toxicity test (acute, oral, mouse); type: in vivo; details: mouse, in vivo, po; male mice, CMC vehicle, observed for 21 days
Experimental: (§1) 4-amino-5,6-heptadienoic acid prepared in CMC vehicle was administered once daily to groups of 6 male mice at doses of 0, 62.5, 125, 250 and 500 mg/Kg. […] Therefore, the LD50 (acute, oral, mouse) for 4-amino-5,6-heptadienoic acid is greater than 500 mg/Kg.

[4] = tested on: mouse; test: Toxicity test (acute, oral, mouse); type: in vivo; details: male mice, once daily, 62.5, 125, 250 and 500 mg/Kg, observed for 21 days
Experimental: as §1

[5] = tested on: C. elegans; test: C. elegans assay; details: Caenorhabditis elegans, read-out: % Active
Experimental: The compounds tested were dissolved in DMSO at 10 mg/ml to give sample stock solutions. During assay, 1 ml M9 buffer (6 g Na2 HPO4, 3 g KH2 PO4, 5 g NaCl, and 0.25 g MgSO4 H2 O per liter) was placed in each of the 24-wells in a tissue culture plate. 10 μl of sample stock solution was added respectively to each of 23 wells. The remaining well served as drug-free control.
At time 0, 1 drop of C. elegans suspension was dropped into each well (25-50 adults). At 1 hour, the number of active worms versus total in each well was recorded.

[6] = tested on: N. Brasiliensis; test: N. Brasiliensis assay, third larval stage; details: 50 μg/ml, 37° C., control 100%, read-out: Percent Viable
Experimental: The compound was tested at 50 μg/ml against the third larval stage of N. Brasiliensis at approximately 50 L3 /well; this mixture was incubated at 37° C. for total of 7 days. Activity of the compound was checked on days 1, 4. and 7 post-inoculation.

C#CC(N)CCC(=O)O (stereo not shown) [γ-acetylenic]
increase of the brain level of γ-aminobutyric acid [1]: significantly increase
irreversible inhibitors of γ-aminobutyric acid transaminase [2]: potent irreversible inhibitors

C=CC(N)CCC(=O)O (stereo not shown) [γ-vinyl-γ-aminobutyric acid]
increase of the brain level of γ-aminobutyric acid [1]: significantly increase
irreversible inhibitors of γ-aminobutyric acid transaminase [2]: potent irreversible inhibitors

C=C=CC(N)CCC(=O)O (stereo not shown) [4-amino-5,6-heptadienoic acid]
LD50 at 504 h [3]: > 500 mg/kg
deaths [4]: no deaths

NC(CF)CCC(=O)O (stereo not shown) [γ-monofluoromethyl-γ-aminobutyric acid]
increase of the brain level of γ-aminobutyric acid [1]: significantly increase
irreversible inhibitors of γ-aminobutyric acid transaminase [2]: potent irreversible inhibitors

C=C=C(C)C(N)CCC(=O)OCCCCCCCC (stereo not shown) [Octyl 4-amino-5-methyl-5,6-heptanoate, octyl-4-amino-5-methyl-5,6-heptadienoate para-toluene-sulfonic acid salt]
activity at 100 µg/mL ([5]; 1 h): 25%

C=C=CC(N)CCC(=O)OCCCCCCCC (stereo not shown) [Octyl 4-amino-5,6-heptadienoate para-toluene sulfonic acid salt]
activity at 100 µg/mL ([5]; active worms versus total at 1 hour, 10 μl of 10 mg/ml DMSO stock added to 1 ml M9 buffer, control 100%): 45%
viability at 50 µg/mL ([6]; 24 h, day 1): 64%
viability at 50 µg/mL ([6]; 96 h, day 4): 0%
viability at 50 µg/mL ([6]; 168 h, day 7): 0%
